Experimental data as given in paper PMC12648108, “Phenotypic pleiotropy of missense variants in human B cell confinement receptor P2RY8” (Cell Genomics, 2025).

Legend:
P2RY8 [1] = biological target: T1, P2RY8 (Homo sapiens, UniProt Q86VZ1, L220Y); assay: TRUPATH BRET G13 activation assay; format: cell-based; settings: agonist (falling BRET ratio); HEK293T with Gα13-RLuc8, Gβ3, Gγ9-GFP2; HBSS, 20 mM HEPES
T1 construct: full length, 358 codons after start to 358; preprolactin signal + N-terminal OX56 tag (P2A-eGFP vector) for BRET; P2RY8-LgBiT fusion for beta-arrestin; MSCV-GFP vector in WEHI-231; expressed in HEK293T or WEHI-231

[2] = biological target: T2, P2RY8-miniGα13 in complex with Gβ1γ2 (Homo sapiens, UniProt Q86VZ1); assay: cryo-EM structure, […] Å map; format: binding; settings: orthosteric pocket; active state, Gβ1γ2 bound; pH 7.5, L-MNG/GDN/CHS, 30 μM GGG
T2 construct: Expi293F TetR; complexed with human Gβ1γ2 from Hi5 cells

P2RY8 [3] = biological target: T3, P2RY8 (Homo sapiens, UniProt Q86VZ1); assay: migration inhibition of P2RY8-transduced WEHI-231 cells; format: cell-based; settings: agonist; CXCL12 50 ng/mL, 37 °C, 3 h
T3 construct: full length, 358 codons after start to 358; preprolactin signal + N-terminal OX56 tag (P2A-eGFP vector) for BRET; P2RY8-LgBiT fusion for beta-arrestin; MSCV-GFP vector in WEHI-231; expressed in HEK293T or WEHI-231

fold less potency than GGG (P2RY8 [3]) | Structure (SMILES) | G protein activation (P2RY8 [1]) | cryo-EM structure, 2.7 Å map [2]
 | CC(C)=CCC/C(C)=C/CC/C(C)=C/CC/C(C)=C/CSC[C@H](NC(=O)CC[C@H](N)C(=O)O)C(=O)NCC(=O)O [S-geranylgeranyl-L-glutathione] | The strongly deleterious variant L220Y was unable to drive G protein activation | density consistent with GGG located in the canonical class A GPCR orthosteric ligand-binding pocket
~ 100 fold | CCCCC/C=C\C\C=C/C=C/C=C/[C@@H](SC[C@H](NC(=O)CC[C@H](N)C(=O)O)C(=O)NCC(=O)O)[C@@H](O)CCCC(=O)O [leukotriene C4] |  | 
